Results: article PMC10976746 (Molecular Medicine, 2024)

Tests used:
[1] = target: T1, Macrophage migration inhibitory factor (MIF) (Homo sapiens, UniProt P14174)
T1 sequence (P14174 2-115): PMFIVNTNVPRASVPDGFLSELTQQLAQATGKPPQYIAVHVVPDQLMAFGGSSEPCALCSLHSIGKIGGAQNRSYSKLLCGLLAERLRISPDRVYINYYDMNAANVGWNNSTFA

murine MIF = murine MIF (Mus musculus, UniProt P34884); test: dopachrome tautomerase inhibition assay, recombinant mouse MIF; assay type: biochemical

IC50 (murine MIF) [µM]	Compound	keto-enol tautomerase kinetics (Michaelis-Menten), enol-HPP/borate at 306 nm [1]
–	O=C(O)C(=O)Cc1ccc(O)cc1 [4-HPP, 4-hydroxyphenylpyruvate]	(B) the substrate 4-HPP for MIF-induced keto-enol tautomerization
5.2	CS(=O)(=O)Nc1cc2occ(NC=O)c(=O)c2cc1Oc1ccccc1 [T-614, iguratimod]	–
